Measurements reported in US20230365546A1, “5-SUBSTITUTED INDOLE 3-AMIDE DERIVATIVES, PREPARATION METHOD AND USE THEREOF” (ORIGIANT PHARMACEUTICAL CO., LTD, priority 2020, published 2023).

Columns and labels:
Test in all cases: Kinase Profiler 10 μM panel
Fms(Y969C)(h) = Fms(Y969C)(h) (Homo sapiens (Human), UniProt P07333, Y969C)
Experimental: (§1) In vitro kinase assays were conducted using Kinase Profiler services provided by Eurofins. The experimental method was as follows: the small molecule compound to be tested (0.001-10 μM), the protein kinase to be tested were incubated with a buffer containing substrate, 10 mM magnesium acetate, and [γ-^33P-ATP], the reaction was started by adding Mg\TPmix, after incubation for a period of time at room temperature, a 3% phosphate solution was added to the buffer to stop the reaction. Subsequently, 10 μL of the reaction mixture was quantitatively pipetted onto P30 filter paper, which was washed three times with 75 mM phosphate solution and then once with methanol. The P30 filter paper was air-dried and scintillation fluid was added for scintillation counting.

PI3 Kinase (p120g)(h) = PI3 Kinase (p120g)(h) (Homo sapiens (Human), UniProt P48736)
Experimental: as §1

GRK5(h) = GRK5(h) (Homo sapiens (Human), UniProt P34947)
Experimental: as §1

GSK3α(h) = GSK3α(h) (Homo sapiens (Human), UniProt P49840)
Experimental: as §1

Arg(h) = Arg(h) (Homo sapiens (Human), UniProt P42684)
Experimental: as §1

Aurora-A(h) = Aurora-A(h) (Homo sapiens (Human), UniProt O14965)
Experimental: as §1

Aurora-C(h) = Aurora-C(h) (Homo sapiens (Human), UniProt Q9UQB9)
Experimental: as §1

BRK(h) = BRK(h) (Homo sapiens (Human), UniProt Q13882)
Sequence of BRK(h) (Q13882 whole entry): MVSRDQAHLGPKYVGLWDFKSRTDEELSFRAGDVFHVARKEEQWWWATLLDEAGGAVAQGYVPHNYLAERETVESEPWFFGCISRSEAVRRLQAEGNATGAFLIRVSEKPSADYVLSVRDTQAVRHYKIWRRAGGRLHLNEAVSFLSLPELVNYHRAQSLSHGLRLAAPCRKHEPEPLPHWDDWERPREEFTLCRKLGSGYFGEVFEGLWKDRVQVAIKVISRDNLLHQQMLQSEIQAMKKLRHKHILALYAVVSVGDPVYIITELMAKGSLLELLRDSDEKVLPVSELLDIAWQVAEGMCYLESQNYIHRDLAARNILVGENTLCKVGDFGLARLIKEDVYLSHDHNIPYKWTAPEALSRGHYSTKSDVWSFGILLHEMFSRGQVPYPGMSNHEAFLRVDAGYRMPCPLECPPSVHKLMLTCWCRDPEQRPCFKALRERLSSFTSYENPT
Experimental: as §1

CaMKIIα(h) = CaMKIIα(h) (Homo sapiens (Human), UniProt Q9UQM7)
Experimental: as §1

Itk(h) = Itk(h) (Homo sapiens (Human), UniProt Q08881)
Experimental: as §1

JNK1α1(h) = JNK1α1(h) (Homo sapiens (Human), UniProt P45983)
Experimental: as §1

JNK3(h) = JNK3(h) (Homo sapiens (Human), UniProt P53779)
Experimental: as §1

CDK1/cyclinB(h) = CDK1/cyclinB(h) (Homo sapiens (Human), UniProt P06493)
Sequence of CDK1/cyclinB(h) (P06493 whole entry): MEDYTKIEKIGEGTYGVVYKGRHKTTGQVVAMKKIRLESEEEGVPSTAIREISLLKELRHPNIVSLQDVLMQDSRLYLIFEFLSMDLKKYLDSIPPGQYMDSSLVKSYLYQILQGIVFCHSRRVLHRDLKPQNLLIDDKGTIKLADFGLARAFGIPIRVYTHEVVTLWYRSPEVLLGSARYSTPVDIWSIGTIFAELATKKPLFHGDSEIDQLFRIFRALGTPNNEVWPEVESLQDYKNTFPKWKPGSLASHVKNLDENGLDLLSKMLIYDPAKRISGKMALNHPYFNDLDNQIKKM
Sequence of CDK1/cyclinB(h) (P14635 whole entry partner): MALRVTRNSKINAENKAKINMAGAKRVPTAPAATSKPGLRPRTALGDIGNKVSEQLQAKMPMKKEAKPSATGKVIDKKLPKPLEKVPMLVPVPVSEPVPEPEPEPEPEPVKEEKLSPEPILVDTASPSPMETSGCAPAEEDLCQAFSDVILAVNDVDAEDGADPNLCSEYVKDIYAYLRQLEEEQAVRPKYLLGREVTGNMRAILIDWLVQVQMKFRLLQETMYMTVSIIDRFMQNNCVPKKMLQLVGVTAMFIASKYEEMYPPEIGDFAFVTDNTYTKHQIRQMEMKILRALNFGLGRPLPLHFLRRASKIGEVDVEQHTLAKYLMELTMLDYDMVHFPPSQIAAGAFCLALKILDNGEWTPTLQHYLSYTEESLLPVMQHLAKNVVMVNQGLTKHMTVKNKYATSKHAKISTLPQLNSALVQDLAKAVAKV
Experimental: as §1

LTK(h) = LTK(h) (Homo sapiens (Human), UniProt P29376)
Sequence of LTK(h) (P29376 17-864): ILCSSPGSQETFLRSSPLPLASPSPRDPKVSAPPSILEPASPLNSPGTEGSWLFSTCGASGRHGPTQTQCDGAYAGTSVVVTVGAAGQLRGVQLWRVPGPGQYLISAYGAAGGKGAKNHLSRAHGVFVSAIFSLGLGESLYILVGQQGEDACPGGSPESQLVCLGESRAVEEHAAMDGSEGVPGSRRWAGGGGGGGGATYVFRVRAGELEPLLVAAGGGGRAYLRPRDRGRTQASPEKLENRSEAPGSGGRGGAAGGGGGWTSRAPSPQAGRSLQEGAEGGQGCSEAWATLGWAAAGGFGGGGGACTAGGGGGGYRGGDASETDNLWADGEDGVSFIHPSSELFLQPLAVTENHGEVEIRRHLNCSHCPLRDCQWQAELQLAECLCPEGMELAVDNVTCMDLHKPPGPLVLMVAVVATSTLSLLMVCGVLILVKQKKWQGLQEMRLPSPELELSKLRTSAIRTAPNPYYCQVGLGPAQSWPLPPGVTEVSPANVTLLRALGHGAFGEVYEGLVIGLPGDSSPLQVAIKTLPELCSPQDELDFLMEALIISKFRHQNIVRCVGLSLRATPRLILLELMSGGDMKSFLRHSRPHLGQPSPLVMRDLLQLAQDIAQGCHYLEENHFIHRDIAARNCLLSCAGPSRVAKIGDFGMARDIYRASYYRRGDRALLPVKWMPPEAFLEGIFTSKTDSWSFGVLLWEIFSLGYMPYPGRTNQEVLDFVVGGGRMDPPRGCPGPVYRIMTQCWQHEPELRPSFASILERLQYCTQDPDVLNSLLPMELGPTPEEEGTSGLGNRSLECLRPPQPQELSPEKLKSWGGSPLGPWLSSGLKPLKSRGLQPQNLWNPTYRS
Experimental: as §1

MAK(h) = MAK(h) (Homo sapiens (Human), UniProt P20794)
Experimental: as §1

CDK5/p35(h) = CDK5/p35(h) (Homo sapiens (Human), UniProt Q00535)
Experimental: as §1

MAPKAP-K2(h) = MAPKAP-K2(h) (Homo sapiens (Human), UniProt P49137)
Experimental: as §1

Rsk4(h) = Rsk4(h) (Homo sapiens (Human), UniProt Q9UK32)
Experimental: as §1

CK2(h) = CK2(h) (Homo sapiens (Human), UniProt P68400)
Sequence of CK2(h) (P68400 whole entry): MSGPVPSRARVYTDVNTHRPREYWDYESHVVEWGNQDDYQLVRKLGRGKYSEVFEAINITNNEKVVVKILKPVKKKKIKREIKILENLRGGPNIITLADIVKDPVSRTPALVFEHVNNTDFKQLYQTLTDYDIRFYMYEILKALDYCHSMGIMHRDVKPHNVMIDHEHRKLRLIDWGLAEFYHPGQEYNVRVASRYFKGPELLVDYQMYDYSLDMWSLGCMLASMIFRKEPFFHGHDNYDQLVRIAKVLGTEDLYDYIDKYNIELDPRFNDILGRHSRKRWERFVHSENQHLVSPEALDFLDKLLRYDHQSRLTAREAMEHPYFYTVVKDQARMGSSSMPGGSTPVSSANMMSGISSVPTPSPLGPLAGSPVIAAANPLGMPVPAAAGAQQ
Sequence of CK2(h) (P67870 whole entry partner): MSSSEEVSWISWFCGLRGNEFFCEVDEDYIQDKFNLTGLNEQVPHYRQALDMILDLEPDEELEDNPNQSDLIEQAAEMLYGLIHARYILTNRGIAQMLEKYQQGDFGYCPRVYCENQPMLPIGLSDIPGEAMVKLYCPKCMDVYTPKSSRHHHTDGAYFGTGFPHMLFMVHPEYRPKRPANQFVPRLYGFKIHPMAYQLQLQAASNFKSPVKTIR
Experimental: as §1

SNRK(h) = SNRK(h) (Homo sapiens (Human), UniProt Q9NRH2)
Sequence of SNRK(h) (Q9NRH2 whole entry): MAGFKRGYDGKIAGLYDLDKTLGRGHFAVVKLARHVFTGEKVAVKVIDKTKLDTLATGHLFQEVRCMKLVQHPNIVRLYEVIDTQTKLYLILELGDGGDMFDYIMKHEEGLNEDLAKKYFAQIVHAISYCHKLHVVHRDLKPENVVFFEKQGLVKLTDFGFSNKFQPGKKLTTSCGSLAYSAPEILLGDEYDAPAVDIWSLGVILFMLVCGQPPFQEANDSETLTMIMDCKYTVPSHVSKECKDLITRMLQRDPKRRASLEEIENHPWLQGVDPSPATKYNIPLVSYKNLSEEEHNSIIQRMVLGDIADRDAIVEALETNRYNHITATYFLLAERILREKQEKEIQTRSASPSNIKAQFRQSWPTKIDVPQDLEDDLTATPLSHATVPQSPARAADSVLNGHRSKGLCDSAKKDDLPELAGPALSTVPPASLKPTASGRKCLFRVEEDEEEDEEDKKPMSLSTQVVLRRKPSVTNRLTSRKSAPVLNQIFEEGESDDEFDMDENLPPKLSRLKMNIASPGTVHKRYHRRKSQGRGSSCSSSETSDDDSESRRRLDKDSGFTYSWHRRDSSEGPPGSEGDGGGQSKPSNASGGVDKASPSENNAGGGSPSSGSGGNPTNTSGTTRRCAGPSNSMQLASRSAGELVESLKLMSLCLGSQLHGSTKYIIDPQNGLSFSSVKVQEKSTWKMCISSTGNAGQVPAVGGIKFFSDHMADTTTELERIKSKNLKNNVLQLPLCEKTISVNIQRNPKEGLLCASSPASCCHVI
Experimental: as §1

SRMS(h) = SRMS(h) (Homo sapiens (Human), UniProt Q9H3Y6)
Experimental: as §1

MLK2(h) = MLK2(h) (Homo sapiens (Human), UniProt Q02779)
Sequence of MLK2(h) (Q02779 whole entry): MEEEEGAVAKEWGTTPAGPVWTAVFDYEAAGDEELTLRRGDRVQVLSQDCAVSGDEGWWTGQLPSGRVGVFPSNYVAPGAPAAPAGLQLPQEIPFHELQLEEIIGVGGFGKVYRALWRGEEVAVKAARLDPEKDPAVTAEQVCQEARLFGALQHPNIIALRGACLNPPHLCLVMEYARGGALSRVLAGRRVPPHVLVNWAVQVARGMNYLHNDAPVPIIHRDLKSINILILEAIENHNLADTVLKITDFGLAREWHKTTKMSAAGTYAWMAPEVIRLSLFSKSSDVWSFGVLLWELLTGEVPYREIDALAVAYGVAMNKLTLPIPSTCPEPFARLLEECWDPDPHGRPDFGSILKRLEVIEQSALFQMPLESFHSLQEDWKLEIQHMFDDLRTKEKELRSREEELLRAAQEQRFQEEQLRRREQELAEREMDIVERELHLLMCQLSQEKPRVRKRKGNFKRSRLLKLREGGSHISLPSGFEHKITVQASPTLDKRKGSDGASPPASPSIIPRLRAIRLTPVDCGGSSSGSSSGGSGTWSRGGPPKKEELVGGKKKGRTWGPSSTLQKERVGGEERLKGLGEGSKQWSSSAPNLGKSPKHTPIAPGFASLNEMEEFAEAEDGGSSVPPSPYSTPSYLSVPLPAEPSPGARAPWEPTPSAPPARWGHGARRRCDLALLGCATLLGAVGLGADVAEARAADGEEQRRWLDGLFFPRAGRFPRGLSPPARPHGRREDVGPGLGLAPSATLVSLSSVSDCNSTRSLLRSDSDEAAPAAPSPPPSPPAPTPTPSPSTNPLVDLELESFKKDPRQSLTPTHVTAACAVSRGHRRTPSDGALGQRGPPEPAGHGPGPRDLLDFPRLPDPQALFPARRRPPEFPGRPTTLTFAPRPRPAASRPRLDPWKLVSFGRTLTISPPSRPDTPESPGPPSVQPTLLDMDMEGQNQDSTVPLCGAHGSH
Experimental: The experimental method was as follows: the small molecule compound to be tested (0.001-10 μM), the protein kinase to be tested were incubated with a buffer containing substrate, 10 mM magnesium acetate, and [γ-^33P-ATP], the reaction was started by adding Mg\TPmix, after incubation for a period of time at room temperature, a 3% phosphate solution was added to the buffer to stop the reaction. Subsequently, 10 μL of the reaction mixture was quantitatively pipetted onto P30 filter paper, which was washed three times with 75 mM phosphate solution and then once with methanol. The P30 filter paper was air-dried and scintillation fluid was added for scintillation counting.

DAPK1(h) = DAPK1(h) (Homo sapiens (Human), UniProt P53355)
Experimental: as §1

DRAK1(h) = DRAK1(h) (Homo sapiens (Human), UniProt Q9UEE5)
Experimental: as §1

MYO3B(h) = MYO3B(h) (Homo sapiens (Human), UniProt Q8WXR4)
Experimental: as §1

DYRK1B(h) = DYRK1B(h) (Homo sapiens (Human), UniProt Q9Y463)
Experimental: as §1

TLK2(h) = TLK2(h) (Homo sapiens (Human), UniProt Q86UE8)
Experimental: as §1

NLK(h) = NLK(h) (Homo sapiens (Human), UniProt Q9UBE8)
Experimental: as §1

p70S6K(h) = p70S6K(h) (Homo sapiens (Human), UniProt P23443)
Sequence of p70S6K(h) (P23443 whole entry): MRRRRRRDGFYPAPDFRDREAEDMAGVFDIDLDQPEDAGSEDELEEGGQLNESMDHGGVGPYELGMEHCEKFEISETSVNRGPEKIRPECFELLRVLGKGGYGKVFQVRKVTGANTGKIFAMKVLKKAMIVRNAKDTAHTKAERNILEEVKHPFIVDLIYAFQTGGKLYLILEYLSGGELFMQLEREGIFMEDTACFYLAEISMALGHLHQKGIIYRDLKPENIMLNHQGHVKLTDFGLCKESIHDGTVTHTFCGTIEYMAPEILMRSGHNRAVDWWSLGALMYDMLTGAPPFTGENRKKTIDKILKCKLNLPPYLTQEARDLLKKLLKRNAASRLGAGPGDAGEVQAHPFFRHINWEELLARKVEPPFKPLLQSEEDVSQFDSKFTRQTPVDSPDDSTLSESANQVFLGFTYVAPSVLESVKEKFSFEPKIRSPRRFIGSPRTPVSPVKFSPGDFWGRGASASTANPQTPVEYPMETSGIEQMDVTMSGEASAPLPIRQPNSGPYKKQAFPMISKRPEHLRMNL
Experimental: as §1

PAK6(h) = PAK6(h) (Homo sapiens (Human), UniProt Q9NQU5)
Experimental: as §1

PDGFRα(V561D)(h) = PDGFRα(V561D)(h) (Homo sapiens (Human), UniProt P16234, V561D)
Experimental: as §1

WNK3(h) = WNK3(h) (Homo sapiens (Human), UniProt Q9BYP7)
Experimental: as §1

FGFR2(N549H)(h) = FGFR2(N549H)(h) (Homo sapiens (Human), UniProt P21802, N549H)
Experimental: as §1

C[C@H](NC(=O)c1c[nH]c2ccc(-c3ccc4nc(NC(=O)C5CC5)sc4c3)cc12)c1cccc(F)c1 [Compound 34, (S)-5-(2-(cyclopropanecarboxamido)benzo[d]thiazol-6-yl)-N-(1-(3-fluorophenyl)ethyl)-1H-indole-3-carboxamide] showed an Inhibition ratio (Fms(Y969C)(h)) of 18%, an Inhibition ratio (PI3 Kinase (p120g)(h)) of 35% and an Inhibition ratio (GRK5(h)) of 0%. The Inhibition ratio (GSK3α(h)) was 10%, the Inhibition ratio (Arg(h)) was 89% and the Inhibition ratio (Aurora-A(h)) was 37%. The Inhibition ratio (Aurora-C(h)) was 26%, the Inhibition ratio (BRK(h)) was 4% and the Inhibition ratio (CaMKIIα(h)) was 5%. The Inhibition ratio (Itk(h)) was 99%, the Inhibition ratio (JNK1α1(h)) was 15% and the Inhibition ratio (JNK3(h)) was 63%. For the same molecule, the Inhibition ratio (CDK1/cyclinB(h)) was 13%, the Inhibition ratio (LTK(h)) was 23% and the Inhibition ratio (MAK(h)) was 2%. It also gave an Inhibition ratio (CDK5/p35(h)) of −7%, an Inhibition ratio (MAPKAP-K2(h)) of −7% and an Inhibition ratio (Rsk4(h)) of −15%. For the same molecule, the Inhibition ratio (CK2(h)) was −9%, the Inhibition ratio (SNRK(h)) was −24% and the Inhibition ratio (SRMS(h)) was 12%. For the same molecule, the Inhibition ratio (MLK2(h)) was 99%, the Inhibition ratio (DAPK1(h)) was 12% and the Inhibition ratio (DRAK1(h)) was 38%. It also gave an Inhibition ratio (MYO3B(h)) of 16%, an Inhibition ratio (DYRK1B(h)) of 12% and an Inhibition ratio (TLK2(h)) of 5%. It also gave an Inhibition ratio (NLK(h)) of 25%, an Inhibition ratio (p70S6K(h)) of 25% and an Inhibition ratio (PAK6(h)) of −14%. For the same molecule, the Inhibition ratio (PDGFRα(V561D)(h); PDGFRα(V561D)(h)) was 99%, the Inhibition ratio (WNK3(h)) was 18% and the Inhibition ratio (FGFR2(N549H)(h)) was 86%.
With C[C@H](NC(=O)c1cn(C)c2ccc(-c3ccn4nc(NC(=O)C5CC5)nc4c3)cc12)c1cccc(F)c1 [Compound 94, (S)-5-(2-(cyclopropanecarboxamido)-[1,2,4]triazolo[1,5-a]pyridin-7-yl)-N-(1-(3-fluorophenyl)ethyl)-1-methyl-1H-indole-3-carboxamide] the Inhibition ratio/% (Fms(Y969C)(h)) was 13%, the Inhibition ratio/% (PI3 Kinase (p120g)(h)) was −12% and the Inhibition ratio/% (GRK5(h)) was 21%. The Inhibition ratio/% (GSK3α(h)) was 48%, the Inhibition ratio/% (Arg(h)) was 42% and the Inhibition ratio/% (Aurora-A(h)) was −7%. The Inhibition ratio/% (Aurora-C(h)) was 15%, the Inhibition ratio/% (BRK(h)) was 47% and the Inhibition ratio/% (CaMKIIα(h)) was 76%. It also gave an Inhibition ratio/% (Itk(h)) of 92%, an Inhibition ratio/% (JNK1α1(h)) of 53% and an Inhibition ratio/% (JNK3(h)) of 40%. It also gave an Inhibition ratio/% (CDK1/cyclinB(h)) of 78%, an Inhibition ratio/% (LTK(h)) of 5% and an Inhibition ratio/% (MAK(h)) of 45%. It also gave an Inhibition ratio/% (CDK5/p35(h)) of −8%, an Inhibition ratio/% (MAPKAP-K2(h)) of −1% and an Inhibition ratio/% (Rsk4(h)) of 3%. For the same molecule, the Inhibition ratio/% (CK2(h)) was 44%, the Inhibition ratio/% (SNRK(h)) was 25% and the Inhibition ratio/% (SRMS(h)) was 43%. For the same molecule, the Inhibition ratio/% (MLK2(h)) was 99%, the Inhibition ratio/% (DAPK1(h)) was 40% and the Inhibition ratio/% (DRAK1(h)) was 30%. The Inhibition ratio/% (MYO3B(h)) was −18%, the Inhibition ratio/% (DYRK1B(h)) was −1% and the Inhibition ratio/% (TLK2(h)) was 25%. For the same molecule, the Inhibition ratio/% (NLK(h)) was 16%, the Inhibition ratio/% (p70S6K(h)) was −18% and the Inhibition ratio/% (PAK6(h)) was 49%. It also gave an Inhibition ratio/% (PDGFRα(V561D)(h); printed in Table 4 as PDGFRβ (V561D)(h)) of 38%, an Inhibition ratio/% (WNK3(h)) of −20% and an Inhibition ratio/% (FGFR2(N549H)(h)) of 12%.
